From patent publication US10383338B2, “Compositions and methods for making and using hydrolytic enzymes for degrading polysaccharides made by foodborne pathogenic bacteria” (University of Wyoming, priority 2014, dated 2019)

Key:
[1] = target: T1, Listeria monocytogenes PssE (Lmo0531), GGDEF domain (residues 107-285) containing the I-site, as MBP fusion (MBP::GGDEFpssE) (Listeria monocytogenes, UniProt Q8Y9J6); assay: Equilibrium dialysis of c-di-GMP binding to the PssE receptor (MBP-GGDEFpssE)
T1 construct: equilibrium dialysis
From the text: FIGS. 5A-5B: In vitro assay of c-di-GMP binding by the PssE receptor. […] The GGDEF domain of PssE (residues 107-285) (“GGDEF” disclosed as SEQ ID NO: 3) containing the putative I-site was fused downstream of MBP, MBP::GGDEFpssE (“GGDEF” disclosed as SEQ ID NO: 3), and used in c-di-GMP binding assays. […] Shown is the dependence of the ratio of bound cdi-GMP per protein in the dialysis chamber, where protein alone was loaded, versus concentration of free c-di-GMP at equilibrium.
(§1) To test the prediction that the PssE protein acts as a c-di-GMP receptor, its GGDEF domain (“GGDEF” disclosed as SEQ ID NO: 3) containing the I-site as an MBP fusion (MBP-GGDEFpssE) (“GGDEF” disclosed as SEQ ID NO: 3) was overexpressed, and this protein was purified (FIG. 5A) and analyzed for its ability to bind c-di-GMP in vitro using equilibrium dialysis. […] This value falls within the range of physiologically relevant intracellular c-di-GMP concentrations measured in other bacteria that are believed to be in the submicromolar to low micromolar range. […] Therefore, PssE is a bonafide c-di-GMP receptor that is predicted to transfer the c-di-GMP signal to activate synthesis of the listerial Pss EPS.
For purification of MBP::PdeC and MBP::GGDEFpssE fusions (“GGDEF” disclosed as SEQ ID NO: 3), IPTG (final concentration, 0.2 mM) was added to exponentially (A600, 0.6-0.8) growing E. coli DH5α containing appropriate plasmids. After 2-h induction, cells were collected by centrifugation. Cell pellets were resuspended in a buffer containing 200 mM NaCl, 0.5 mM EDTA, 5 mM MgCl2, 20 mM Tris-HCl (pH 7.6), and 5% glycerol that also contained protease inhibitors. […]
(§2) Equilibrium dialysis experiments were performed as previously described. […] The nucleotide concentrations were quantified by HPLC. Binding constants were calculated by the GraphPad Prism software, version 4.03 (GraphPad Software, San Diego, Calif.) using a nonlinear regression model.

MBP-GGDEFpssE = assay: Equilibrium dialysis assay of c-di-GMP binding by the PssE receptor; design: species or system L. monocytogenes
From the text: as §1
For purification of MBP::PdeC and MBP::GGDEFpssE fusions (“GGDEF” disclosed as SEQ ID NO: 3), IPTG (final concentration, 0.2 mM) was added to exponentially (A600, 0.6-0.8) growing E. coli DH5α containing appropriate plasmids. After 2-h induction, cells were collected by centrifugation. […]
as §2

L. monocytogenes = format: cell-based; settings: hydrogen peroxide 200 mM, benzalkonium chloride 100 ppm; 10 min, room temperature
Method: Here, the role of L. monocytogenes EPS in providing tolerance to disinfection and desiccation was evaluated. […] To distinguish between the contribution of EPS versus EPS-independent c-di-GMP-responsive agents, included in the tests were the ΔpdeB/C/D ΔpssC mutant characterized by elevated intracellular c-di-GMP levels but defective in EPS production.
Cultures were grown in HTM with 3% glucose at 37° C. for 24 h, at which point small uniform clumps are formed by the ΔpdeB/C/D strain. Aliquots (250 μl; 10^8 cfu/ml) of these cultures were mixed with disinfectants at 1:1 vol ratios in small glass tubes that also contained 0.1 g of acid washed glass beads (Sigma Life Sciences). Following a 10-min exposure to disinfectants at room temperature, D/E neutralizing broth (500 μl; Difco) was added. Samples were vigorously vortexed (for 5 min) and clumps of the ΔpdeB/C/D strain were dispersed due to the action of the glass beads. Serial dilutions were plated on BHI agar and colonies were counted following a 48-h incubation at 37° C.

[2] = Solubility of listerial EPS preparations; format: physicochemical
From the text: Considering that chitin, a polymer of β-1,4-linked N-acetylglucosamine, is also insoluble, but chitosan, which is obtained from chitin by N-deacetylation, is soluble in dilute acid, ManNAc-Gal EPS may also be made soluble by N-deacetylation. […] To identify the sugars belonging to the anomeric signals, a series of 2-D NMR spectra was acquired. COSY and TOCSY spectra were used to assign the proton chemical shifts, and an HSQC spectrum was obtained to assign the carbon chemical shifts of the monosaccharide residues present in EPS-N. The residues and their linkage positions were identified from the proton and carbon chemical shifts. A NOESY spectrum was used to determine the monosaccharide sequence. The spectra clearly identified one of the anomeric peaks as belonging to a terminal α-galactopyranose (α-Galp) residue (Table 3).
N-deacetylation was performed to obtain soluble EPS material for NMR studies. The insoluble EPS sample was suspended in 300 μl of 50% NaOH and heated to 80° C. for 1 h. After cooling to room temperature, the sample was diluted with 1 ml of water and acidified with glacial acetic acid (final pH˜4-5). The sample was dialyzed against running deionized water for 36 h using a 3,500 Da regenerated cellulose membrane and lyophilized. This material was designated ‘EPS-N’. EPS-N was dissolved in 5 ml of 0.4 M HCl and heated at 110° C. for 2 h for partial hydrolysis. […]

[3] = Release of soluble carbohydrates from purified insoluble EPS (anthrone assay); format: biochemical, L. monocytogenes; settings: 32 μg ml^−1 final concentration; ethanol precipitated EPS
Method: Next, purified insoluble ManNAc-Gal EPS was treated with PssZ and PssZ E72Q.
Total carbohydrates were determined using an anthrone assay. Dried EPS samples were transferred to 0.4 ml of water and mixed with an ethyl acetate solution containing anthrone reagent (2% w/v). Then, 1 ml of concentrated sulfuric acid was added to the mixture for color development. Samples were read at a wavelength of 620 nm, and glucose was used as a standard to estimate carbohydrate levels in the samples. Finally, dried EPS samples were sent to the Complex Carbohydrate Research Center (Athens, Ga., USA) for determination of monosaccharide composition, linkage, and NMR analysis.
The EPS hydrolytic activities of PssZ and PssZ E72Q were assessed by the ability of these proteins: (i) to prevent aggregation of the growing ΔpdeB/C/D strain in HTM/G medium, (ii) to disperse nongrowing ΔpdeB/C/D aggregates; and (iii) to release soluble carbohydrates from the purified insoluble EPS fibers. (i) Different concentrations (0.13 and 1.3 μg ml^−1) of the purified PssZ and PssZ E72Q proteins were added at the beginning of strain incubation. (ii) Aggregates were washed twice and resuspended in HTM salts-MOPS medium. Proteins were added to 1 ml of aggregate suspension (32 μg ml^−1, final concentration), and samples were incubated at 30° C. with gentle shaking. […]

[4] = system: washed aggregates of strain ΔpdeB/C/D; assay: Dispersal of preformed cell aggregates; format: cell-based, L. monocytogenes
[5] = Stability of PssZ hydrolytic activity on incubation; format: physicochemical; settings: 3 day incubation at 30° C.
From the text: In addition to biosynthesis proteins, the ManNAc-Gal EPS-specific glycosylhydrolase was identified and characterized. PssZ belongs to the GH8 family, whose members cleave β1-4 linkages through an inverting mechanism wherein carboxylate containing amino acid residues (i.e., Glu and Asp) perform the hydrolysis of glycosidic bonds. A conserved Glu residue present in the presumed catalytic site of PssZ was identified to be important for hydrolytic activity of PssZ (FIG. 17). The PssZ E72Q mutation largely, but not completely, abolished hydrolytic activity. […] A similar observation was reported for BcsZ, i.e., no hydrolytic activity was detected on carboxymethylcellulose in solution, whereas activity was shown on an agar plate containing carboxymethylcellulose. […] Given its relative stability, PssZ can be used for dispersing listerial EPS aggregates in food storage or processing plants, which would make listeria more susceptible to disinfectants. According to the results observed, listerial EPS-embedded aggregates are several orders of magnitude more tolerant to commonly used disinfectants than planktonic cells.

ΔpdeB/C/D strain = assay: Cell aggregation assay with added recombinant protein (prevention of aggregation of the growing strain); format: cell-based, L. monocytogenes; settings: added to inoculum, HTM/G, 30° C., 24 h

T1 sequence (Q8Y9J6 entry or part of it): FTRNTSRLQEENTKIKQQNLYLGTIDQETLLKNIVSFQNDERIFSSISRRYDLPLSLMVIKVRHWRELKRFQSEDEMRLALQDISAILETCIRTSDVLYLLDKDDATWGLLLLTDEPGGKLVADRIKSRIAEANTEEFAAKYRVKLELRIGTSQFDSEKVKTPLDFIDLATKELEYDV

## Nc1nc2c(ncn2[C@@H]2O[C@@H]3COP(=O)(O)O[C@H]4[C@@H](O)[C@H](n5cnc6c(=O)[nH]c(N)nc65)O[C@@H]4COP(=O)(O)O[C@H]3[C@H]2O)c(=O)[nH]1 [c-di-GMP, Cyclic dimeric GMP]
[1]
  Kd: 790 ± 170 nM
[1]; equilibrium dialysis, 25 h at room temperature
  Bmax (binding capacity): 2.03±0.12 μM c-di-GMP (μM protein)^−1
[1]; from Bmax
  c-di-GMP molecules bound per PssE molecule at saturation: two
MBP-GGDEFpssE; 25 h, room temperature, protein 20 μM, c-di-GMP 1 to 50 μM, read-out: apparent Kd
  Kd: 790 ± 170 nM
MBP-GGDEFpssE; nonlinear regression
  binding capacity, Bmax: 2.03±0.12 μM c-di-GMP (μM protein)^−1

## OO [hydrogen peroxide]
L. monocytogenes
  tolerance of ΔpdeB/C/D mutant compared to wild type or ΔpdeB/C/D ΔpssC mutant: approximately 10^2 fold

## benzalkonium chloride
L. monocytogenes
  tolerance of ΔpdeB/C/D mutant compared to wild type or ΔpdeB/C/D ΔpssC mutant: approximately 10^2 fold

## {4)-β-ManpNAc-(1-4)-[α-Galp-(1-6)]-β-ManpNAc-(1-} [ManNAc-Gal EPS]
[2]
  solubility of native material: completely insoluble

B1: PssZ: L. monocytogenes ManNAc-Gal EPS-specific glycosylhydrolase; SEQ ID NO: 1, purified fragment SEQ ID NO: 2 (protein)
chain: RPESKKTVSAPKETTPTSTSVQTYVKENYTAKNGLIMDYKNTEEPHYLAESIGLYMEYLVEVNDSKTFQKQVNHLEKYFIAEDNFIKWEATDSTTTNAIVDDFRITEALYQASEKFSFPSYKKMADKFLTNTKKYSAEQGVPVDFYDFVHKKKADTLHLSYLNIQAMQQINYRDKAYLPIQTINADPFFTEVFQNGQFKFADQKEVNMIDQMLIAIAYYDENGDIEPNFDNFLQTELASKGKIYARYQRETKKPSSENESTAVYAFLTQYFNKTNQAKNGKITKELLEKMDTSNPETTHFFDYINKEITLKK
modifications: His6 tag; Listeria monocytogenes
[3]
  hydrolytic activity on purified insoluble EPS (anthrone assay): did not detect any PssZ activity
[4]; 32 μg ml^−1 final concentration, 6 h, 30° C., HTM salts without carbon source
  dispersal of preformed cell aggregates: dispersed cell aggregates almost completely
[4]; supernatants after treatment of cell aggregates
  presence of reducing sugars in supernatants after treatment of cell aggregates: able to be detected
[5]
  hydrolytic activity retained after incubation: retains partial hydrolytic activity
ΔpdeB/C/D strain; 0.13 μg ml^−1 final concentration
  inhibition of cell aggregation: inhibited aggregation partially
ΔpdeB/C/D strain; 1.3 μg ml^−1 final concentration
  inhibition of cell aggregation: inhibited it completely
